In patent publication US20250361269A1, “PEPTIDE EXHIBITING MUSCLE LOSS PREVENTION AND MUSCLE MASS PROMOTION ACTIVITIES, AND USE THEREOF” (CAREGEN CO., LTD., priority 2022, published 2025):

Assays:
C2C12 cells [1] = assay: Western blotting of early differentiation markers in C2C12 myoblasts; format: cell-based, mouse; conditions: 5, 50, or 100 ug/ml peptide, after three days in differentiation medium, vs CM group
Protocol: In this example, by evaluating changes in the expression of an early differentiation marker protein of C2C12 cells, which are mouse myoblasts, it was to confirm the effects of the peptide according to an example on the differentiation of myoblasts into muscle cells/muscle fibers at an early differentiation stage.
The C2C12 cells were cultured in a DMEM supplemented with 1% P/S and 2% BCS. When the cell confluency reached 70-80%, the cells were seeded into 6-well culture plates. Afterwards, when the cell confluency in the 6-well culture plate reached 100%, the culture medium was replaced with a differentiation medium (supplemented with 1% P/S and 2% horse serum), and 5, 50, or 100 ug/ml of the peptide of SEQ ID NO: 1 was added thereto. Afterwards, the differentiation medium and the same amount of the peptide of SEQ ID NO: 1 were replaced and added, respectively, once every two days. After three days from the first day of medium replacement, the culture was lysed by adding a dissolution buffer thereto, and proteins were obtained by centrifugation at 4° C. and 12,000 rpm for 30 minutes. These proteins were then quantified by using a BCA kit. […] After washing with PBS-T again, the proteins were detected by using Gel Doc (Bio-Rad, Hercules, CA, USA) and Western detection reagents (Elpis Biotech, Daejeon, Korea). […]

[2] = test system: muscle tissue, muscle damage induced by BaCl2; assay: Sirius red staining of muscle tissue from BaCl2-induced muscle damage model; format: in vivo, C57BL/6 mouse; conditions: 20 mg peptide orally, six times, Day 7 after BaCl2 muscle damage
Protocol: (§1) 50 μl of a 1.2% (w/v) BaCl2 aqueous solution was injected into the tibialis anterior (TA) muscle of a 8-week-old male C57BL/6 mouse to induce muscle damage for 1 day. Afterwards, 20 mg of the peptide of SEQ ID NO: 1 was administered orally at a concentration of 0.1 mg/μl at 1-day intervals for a total of six times to the mouse with induced muscle damage. For a positive control group, 0.5 ug of IGF-I was injected intramuscularly at a concentration of 0.01 ug/μl. On Day 7 after inducing the muscle damage, the mouse was sacrificed, and the changes in the TA muscle were visually observed and the mouse was weighed. A non-treated group (Non) was used as a control group, a group (N.C) in which only muscle damage was induced by BaCl2 was used as a negative control group, and a group (P.C) in which muscle damage was induced by BaCl2 and then treated with IGF-I was used as a positive control group. Muscle tissue obtained from the mouse with induced muscle damage of Example 4-1 was washed with PBS at room temperature and then fixed with 4% paraformaldehyde (PFA). Afterwards, the fixed muscle tissue was washed three times with PBS and dehydrated by using a gradient ethanol series (from 70% to 100%). A sample of the muscle tissue was sectioned into 4 μm sections. […]

C2C12 cells [3] = assay: Western blotting of late differentiation marker MyHC in C2C12 myoblasts; format: cell-based, mouse; conditions: 5, 50, or 100 ug/ml peptide, after 7 days in differentiation medium, vs CM group
Protocol: The C2C12 cells were cultured in a DMEM supplemented with 1% P/S and 2% BCS. When the cell confluency reached 70-80%, the cells were seeded into 6-well culture plates. Afterwards, when the cell confluency in the 6-well culture plate reached 100%, the culture medium was replaced with a differentiation medium (supplemented with 1% P/S and 2% horse serum), and 5, 50, or 100 ug/ml of the peptide of SEQ ID NO: 1 was added thereto. Afterwards, the differentiation medium and the same amount of the peptide of SEQ ID NO: 1 were replaced and added, respectively, once every two days. […] These proteins were then quantified by using a BCA kit. SDS-PAGE was performed on samples containing these proteins to separate the respective proteins which were then electrotransferred onto a membrane. The membrane to which the proteins were attached was blocked by treating with 5% skim milk, and primary antibodies were allowed for a reaction overnight at 4° C. After washing with PBS-T, secondary antibodies were allowed for a reaction at room temperature for 1 hour. After washing with PBS-T again, the proteins were detected by using Gel Doc (Bio-Rad, Hercules, CA, USA) and Western detection reagents (Elpis Biotech, Daejeon, Korea). […]

C2C12 cells [4] = assay: Immunofluorescence of a-actinin in C2C12 myoblasts; format: cell-based, mouse; conditions: after 7 days in differentiation medium, vs CM group
C2C12 cells [5] = assay: Immunofluorescence of myogenin (MyoG) in C2C12 myoblasts; format: cell-based, mouse; conditions: 100 ug/ml peptide, after three days in differentiation medium
Protocol: C2C12 cells were cultured in a DMEM supplemented with 1% P/S and 2% BCS. When the cell confluency reached 70-80%, the cells were seeded into a 6-well culture plate. Afterwards, when the cell confluency in the 6-well culture plate reached 100%, the culture medium was replaced with a differentiation medium (supplemented with 1% P/S and 2% horse serum), and 100 ug/ml of the peptide of SEQ ID NO: 1 was added thereto. Afterwards, the differentiation medium and 100 ug/ml of the peptide were replaced and added, respectively, once every two days. After three days from the first day of medium replacement, the cultured cells were fixed with 4% paraformaldehyde (PFA) at room temperature for 10 minutes and permeabilized with 0.1% triton X-100 for 5 minutes. Afterwards, the fixed cells were mixed with PBS, 10% FBS, and 0.1% triton X-100 for blocking at room temperature for 1 hour, and then treated with primary antibodies (MyoG, Santa Cruz, USA). The resulting cells were incubated for 1 hour at room temperature. Afterwards, the cells were washed, and incubated again with secondary antibodies (goat anti-mouse IgG-TR, Santa Cruz, USA) at room temperature for 30 minutes. Afterwards, the cell nuclei were stained with DAPI (Santa Cruz, USA) and observed under a LEICA fluorescence microscope (TCS SP8, LEICA, Germany).

[6] = test system: muscle tissue, muscle damage induced by BaCl2; assay: Western blotting of protein expression in muscle tissue from BaCl2-induced muscle damage model; format: in vivo, C57BL/6 mouse; conditions: 20 mg peptide orally, six times, Day 7 after BaCl2 muscle damage
Protocol: 50 μl of a 1.2% (w/v) BaCl2 aqueous solution was injected into the tibialis anterior (TA) muscle of a 8-week-old male C57BL/6 mouse to induce muscle damage for 1 day. Afterwards, 20 mg of the peptide of SEQ ID NO: 1 was administered orally at a concentration of 0.1 mg/μl at 1-day intervals for a total of six times to the mouse with induced muscle damage. For a positive control group, 0.5 ug of IGF-I was injected intramuscularly at a concentration of 0.01 ug/μl. On Day 7 after inducing the muscle damage, the mouse was sacrificed, and the changes in the TA muscle were visually observed and the mouse was weighed. A non-treated group (Non) was used as a control group, a group (N.C) in which only muscle damage was induced by BaCl2 was used as a negative control group, and a group (P.C) in which muscle damage was induced by BaCl2 and then treated with IGF-I was used as a positive control group. The muscle tissue obtained from the mouse with the induced muscle damage of Example 4-1 was lysed by using homogenizer, and the lysate was dissolved by adding a dissolution buffer thereto. The resulting product was centrifuged at 4° C. and 12,000 rpm for 30 minutes to obtain proteins which were then quantified by using a BCA kit. SDS-PAGE was performed on samples containing these proteins to separate the respective proteins which were then electrotransferred onto a membrane. The membrane to which the proteins were attached was blocked by treating with 5% skim milk, and primary antibodies were allowed for a reaction overnight at 4° C. After washing with PBS-T, secondary antibodies were allowed for a reaction at room temperature for 1 hour. After washing with PBS-T again, the proteins were detected by using Gel Doc (Bio-Rad, Hercules, CA, USA) and Western detection reagents (Elpis Biotech, Daejeon, Korea). Here, anti-MyHC (Santa Cruz, USA), anti-α-actinin (Santa Cruz, USA), anti-α-SMA (Abcam, UK), anti-IL-6 (Santa Cruz, USA), and anti-a-tubulin (Santa Cruz, USA) were used as the primary antibodies.

[7] = test system: muscle tissue, muscle damage induced by BaCl2; assay: H&E staining of muscle tissue from BaCl2-induced muscle damage model; format: in vivo, C57BL/6 mouse; conditions: 20 mg peptide orally, six times, Day 7 after BaCl2 muscle damage
Protocol: as §1

[8] = test system: tibialis anterior (TA) muscle, muscle damage induced by BaCl2; assay: Muscle mass of TA muscle in BaCl2-induced muscle damage animal model; format: in vivo, C57BL/6 mouse; conditions: 20 mg peptide orally at 1-day intervals, six times; Day 7 after BaCl2 muscle damage
Protocol: In this example, an animal model of muscle damage induced by BaCl2 was used to determine the effect of the peptide according to an embodiment on the muscle loss prevention, by evaluating changes in muscle mass, areas of infiltration of immune cells in muscle tissue, levels of accumulated collagen, and expression levels of proteins constituting muscle fibers and inflammatory proteins. 50 μl of a 1.2% (w/v) BaCl2 aqueous solution was injected into the tibialis anterior (TA) muscle of a 8-week-old male C57BL/6 mouse to induce muscle damage for 1 day. Afterwards, 20 mg of the peptide of SEQ ID NO: 1 was administered orally at a concentration of 0.1 mg/μl at 1-day intervals for a total of six times to the mouse with induced muscle damage. For a positive control group, 0.5 ug of IGF-I was injected intramuscularly at a concentration of 0.01 ug/μl. On Day 7 after inducing the muscle damage, the mouse was sacrificed, and the changes in the TA muscle were visually observed and the mouse was weighed. A non-treated group (Non) was used as a control group, a group (N.C) in which only muscle damage was induced by BaCl2 was used as a negative control group, and a group (P.C) in which muscle damage was induced by BaCl2 and then treated with IGF-I was used as a positive control group.

Substance: EAEYEHL [peptide of SEQ ID NO: 1]
- expression of Myf5, early differentiation marker of myoblasts (C2C12 cells [1]): increased
- expression of myogenin (MyoG), early differentiation marker of myoblasts (C2C12 cells [1]): increased
- accumulation of collagen in the tissue [2]: reduced
- expression of MyHC, late differentiation marker of myoblasts (C2C12 cells [3]): increased
- expression of a-actinin, late differentiation marker of myoblasts (C2C12 cells [4]): increased
- expression of myogenin (MyoG) (C2C12 cells [5]): increased
- expression of myogenin (MyoG) in the nuclear region of myoblasts (C2C12 cells [5]): increased
- expression of IL-6 in damaged tissue [6]: decreased
- expression of MyHC, protein constituting muscle fibers, in damaged tissue [6]: increased
- expression of α-SMA, inflammatory protein, in damaged tissue [6]: decreased
- expression of α-actinin in damaged tissue [6]: increased
- area of infiltration of immune cells in the tissue [7]: reduced
- muscle mass of the TA muscle [8]: increased
